Drawing on patent US9686985B2, “Fungicide N-cycloalkyl-N-bicyclicmethylene-carboxamide derivatives” (BAYER INTELLECTUAL PROPERTY GMBH, priority 2012, dated 2017), this text covers Efficacy and logP for seven compounds.

The subject of one data set is Alternaria solani. Kind of data set: Example C: in vivo preventive test on Alternaria solani (tomato). As to conditions: table C2, dose 100 ppm, comparison with WO-2010/086311 compound. As to the method: Example C: In Vivo Preventive Test on Alternaria solani (Tomato) [table] To produce a suitable preparation of active compound, 1 part by weight of active compound is mixed with the stated amounts of solvent and emulsifier, and the concentrate is diluted with water to the desired concentration. To test for preventive activity, young plants are sprayed with the preparation of active compound at the stated rate of application. One day after this treatment, the plants are inoculated with an aqueous spore suspension of Alternaria solani. The plants remain for one day in an incubation cabinet at approximately 22° C. and a relative atmospheric humidity of 100%. Then the plants are placed in an incubation cabinet at approximately 20° C. and a relative atmospheric humidity of 96%.

In the next data set the test system is Uromyces appendiculatus. Description: Example G: in vivo preventive test on Uromyces appendiculatus (bean rust). As to conditions: bean plants. An outline of the steps: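 Bean plants ("Saxa") at the 2-leaf stage, grown at 24° C., sprayed preventively with active ingredient, then inoculated 24 h later with U. appendiculatus spores (150 000 spores per mL). Incubated 24 h at 20° C./100% RH, then 10 days at 20° C./70-80% RH; % efficacy graded 11 days after contamination versus solvent-treated controls.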

The nature of data set [1]: log P by HPLC on reversed-phase column (EEC Directive 79/831 Annex V.A8). The class given is physicochemical. As to conditions: Table 1; HPLC C18, 40° C., 0.1% aqueous formic acid and acetonitrile gradient. The essentials: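 Column at 40° C; mobile phases 0.1% aqueous formic acid and acetonitrile, linear gradient 10% to 90% acetonitrile. Calibrated with unbranched alkan-2-ones (3 to 16 carbons) of known log P; values from retention times by linear interpolation between two successive alkanones.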

Another data set deals with Pyricularia oryzae. The class given is in vivo. As to conditions: table Q; 500 ppm; rice plants; grading 6 days after contamination.
A further data set relates to Septoria tritici. Description: Example L: in vivo preventive test on Septoria tritici (wheat). As to conditions: table L; 500 ppm; wheat plants; grading 24 days after contamination. As for the experimental part:
Example L: In Vivo Preventive Test on Septoria tritici (Wheat) […] Wheat plants (“Scipion” variety), sown in starter cups on a 50/50 peat soil pozzolana substrate and grown at 22° C., are treated at the 1 leaf stage (10 cm height) by spraying with the active ingredient prepared as described above. Plants, used as controls, are treated with the mixture of acetone/tween/DMSO/water not containing the active material. After 24 hours, the plants are contaminated by spraying the leaves with an aqueous suspension of cryopreserved Septoria tritici spores (500 000 spores per mL). The contaminated wheat plants are incubated for 72 hours at 18° C. and at 100% relative humidity, and then for 21 days at 90% relative humidity. Grading (% of efficacy) is carried out 24 days after the contamination, in comparison with the control plants.

The subject of the next data set is Alternaria brassicae. Kind of data set: Example D: in vivo preventive test on Alternaria brassicae (leaf spot on radish). As to conditions: table D; 500 ppm; radish plants; grading 6 days after contamination. As for the experimental part: Example D: In Vivo Preventive Test on Alternaria brassicae (Leaf Spot on Radish) […] Radish plants (“Pernod Clair” variety), sown in starter cups on a 50/50 peat soil pozzolana substrate and grown at 17° C., are treated at the cotyledon stage by spraying with the active ingredient prepared as described above. Plants, used as controls, are treated with the mixture of acetone/tween/DMSO/water not containing the active material. After 24 hours, the plants are contaminated by spraying the cotyledons with an aqueous suspension of Alternaria brassicae spores (50 000 spores per mL). The spores are collected from a 15-day-old culture. The contaminated radish plants are incubated at 20° C. and at 100% relative humidity. Grading (% of efficacy) is carried out 6 days after the contamination, in comparison with the control plants.

The next data set deals with Puccinia recondita. Kind of data set: Example R: in vivo preventive test on Puccinia recondita (brown rust on wheat). As to conditions: table R; 500 ppm; wheat plants; grading 12 days after contamination. As for the experimental part: Example R: In Vivo Preventive Test on Puccinia recondita (Brown Rust on Wheat) […] Wheat plants (“Scipion” variety), sown in starter cups on a 50/50 peat soil pozzolana substrate and grown at 22° C., are treated at the 1 leaf stage (10 cm height) by spraying with the active ingredient prepared as described above. Plants, used as controls, are treated with the mixture of acetone/tween/DMSO/water not containing the active material. After 24 hours, the plants are contaminated by spraying the leaves with an aqueous suspension of Puccinia recondita spores (100 000 spores per mL). The spores are collected from an infected plant and are suspended in water containing 2.5 mL/L of Tween 80 at 10%. The contaminated wheat plants are incubated for 24 hours at 20° C. and at 100% relative humidity, and then for 10 days at 20° C. and at 70-80% relative humidity. Grading (% of efficacy) is carried out 12 days after the contamination, in comparison with the control plants.

A further data set concerns Pyrenophora teres. Kind of data set: Example N: in vivo preventive test on Pyrenophora teres (barley). As to conditions: table N; 500 ppm; barley plants; grading 14 days after contamination. The essentials: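 Barley (cv. Plaisant) at 1-leaf stage was sprayed with compound, then inoculated 24 h later with P. teres spores (12 000/mL). Plants were held 48 h at 20 °C, 100% RH, then 12 days at 20 °C, 70-80% RH; % efficacy versus solvent-treated controls was graded 14 days post-inoculation.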

Another data set relates to Sphaerotheca fuliginea. Kind of data set: Example B: in vivo preventive test on Sphaerotheca fuliginea (powdery mildew on cucurbits). As to conditions: table B; 500 ppm; gherkin plants; grading 12 days after contamination. As to the method: Example B: In Vivo Preventive Test on Sphaerotheca fuliginea (Powdery Mildew on Cucurbits) […] Gherkin plants (“Vert petit de Paris” variety), sown in starter cups on a 50/50 peat soil-pozzolana substrate and grown at 24° C., are treated at the Z11 cotyledon stage by spraying with the active ingredient prepared as described above. Plants, used as controls, are treated with the mixture of acetone/tween/DMSO/water not containing the active material. After 24 hours, the plants are contaminated by spraying the cotyledons with an aqueous suspension of Sphaerotheca fuliginea spores (100 000 spores per mL). The spores are collected from infected plants. The contaminated gherkin plants are incubated at about 20° C. and at 70-80% relative humidity. Grading (% of efficacy) is carried out 12 days after the contamination, in comparison with the control plants.

For the next data set, the system named is Botrytis cinerea. Description: Example S: in vivo preventive test on Botrytis cinerea (grey mould). As to conditions: table S; 500 ppm; gherkin plants; grading 4 to 5 days after contamination. As to the method:
Example S: In Vivo Preventive Test on Botrytis cinerea (Grey Mould) […] Gherkin plants (“Vert petit de Paris” variety), sown in starter cups on a 50/50 peat soil pozzolana substrate and grown at 24° C., are treated at the Z11 cotyledon stage by spraying with the active ingredient prepared as described above. Plants, used as controls, are treated with the mixture of acetone/tween/DMSO/water not containing the active material. After 24 hours, the plants are contaminated by spraying the cotyledons with an aqueous suspension of cryopreserved Botrytis cinerea spores (50 000 spores per mL). The spores are suspended in a nutrient solution composed of 10 g/L of PDB, 50 g/L of D-Fructose, 2 g/L of NH4NO3 and 1 g/L of KH2PO4. The contaminated gherkin plants are incubated at 17° C. and at 90% relative humidity. Grading (% of efficacy) is carried out 4 to 5 days after the contamination, in comparison with the control plants.

Setting [2] is: table G1, 500 ppm, grading 11 days after contamination.

Consider `Cc1nn(C)c(F)c1C(=O)N(C1CC1)C(C)C1CCCc2ccccc21` (stereo not shown) [1.2 from WO-2010/086311, N-cyclopropyl-5-fluoro-1,3-dimethyl-N-[1-(1,2,3,4-tetrahydronaphthalen-1-yl)ethyl]-1H-pyrazole-4-carboxamide, reference compound], for which the Efficacy entry in the data set on Alternaria solani is on record as “no protection”; with Alternaria solani (listed as I.2 from WO-2010/086311), 0%.

Broadly, the logP is a log measure of how a compound divides between an organic and an aqueous phase. Lower therefore signals lower lipophilicity. On to `Cc1cccc2c1CCC2CN(C(=O)c1c(C(F)F)nn(C)c1F)C1CC1` (stereo not shown) [I.3], for which the Efficacy with Uromyces appendiculatus (setting [2]) was found to be 100%; with Uromyces appendiculatus (table G2, dose 100 ppm) it was 88%; in the data set on Uromyces appendiculatus (table G2, dose 500 ppm), 100%; with Pyricularia oryzae, 97%; in the data set with Septoria tritici it was 100%; in the data set on Alternaria brassicae, 97%. The Efficacy with Puccinia recondita was 94%; in the data set with Pyrenophora teres, 100%; with Sphaerotheca fuliginea, 100%. Moreover, in [1], the lipophilicity (logP) was 3.71.

In the case of `Cn1nc(C(F)F)c(C(=O)N(CC2CCc3c(F)cccc32)C2CC2)c1Cl` (stereo not shown) [I.8], in data set [1], the logP is 3.55. Further, the Efficacy in the data set on Pyricularia oryzae stood at 83%; in the data set on Septoria tritici, 71%; with Puccinia recondita, 75%; in the data set on Pyrenophora teres it was 86%; in the data set with Sphaerotheca fuliginea it was 100%.

As to `Cn1nc(C(F)F)c(C(=O)N(CC2CCc3cccc(Cl)c32)C2CC2)c1F` (stereo not shown) [I.14], the Efficacy in the data set with Uromyces appendiculatus (setting [2]) is 100%; in the data set with Uromyces appendiculatus (table G2, dose 100 ppm), 50%; with Uromyces appendiculatus (table G2, dose 500 ppm), 100%; in the data set on Pyricularia oryzae, 75%; with Septoria tritici it was 97%; in the data set on Alternaria brassicae it was 100%. In addition, the Efficacy in the data set with Puccinia recondita worked out at 81%; in the data set with Pyrenophora teres, 93%; in the data set on Sphaerotheca fuliginea it was 100%. This compound also showed a logP in data set [1] of 3.80.

Turning to `Cn1nc(C(F)F)c(C(=O)N(CC2CCc3cccc(Br)c32)C2CC2)c1F` (stereo not shown) [I.21], the Efficacy is 98% in the data set on Uromyces appendiculatus (setting [2]); 83% with Pyricularia oryzae; 93% with Septoria tritici; 100% in the data set on Alternaria brassicae; 88% with Puccinia recondita; 79% in the data set with Pyrenophora teres. Moreover, the Efficacy in the data set with Sphaerotheca fuliginea was 100%. This compound also showed a logP in data set [1] of 3.92.

Consider `Cn1nc(C(F)F)c(C(=O)N(CC2CCOc3ccccc32)C2CC2)c1F` (stereo not shown) [I.31], for which the Efficacy stood at 94% with Uromyces appendiculatus (setting [2]); 100% in the data set on Septoria tritici; 100% in the data set with Botrytis cinerea; 100% in the data set on Alternaria brassicae; 83% in the data set with Puccinia recondita; 100% with Pyrenophora teres. The same compound showed an Efficacy in the data set on Sphaerotheca fuliginea of 100%. This compound also gave a logP in [1] of 3.00.

Regarding `Cn1nc(C(F)F)c(C(=O)N(CC2CCSc3ccc(Cl)cc32)C2CC2)c1F` (stereo not shown) [I.36], the Efficacy in the data set with Uromyces appendiculatus (setting [2]) is listed as 100%; in the data set with Septoria tritici it was 79%; with Botrytis cinerea, 97%; with Alternaria brassicae it was 100%; in the data set on Puccinia recondita it was 78%; in the data set with Pyrenophora teres it was 94%. Also, in the data set with Sphaerotheca fuliginea, the Efficacy was determined as 85%. The compound further came in with a logP in data set [1] of 3.83.
